Assay results: article PMC5451423, “Pharmacokinetic Evaluation of Empagliflozin in Healthy Egyptian Volunteers Using LC-MS/MS and Comparison with Other Ethnic Populations” (Scientific Reports, 2017)
Where two headings read alike, the source gives them in different places.

Experiments:
[1] = design: method as in PMID 25199997; details: Japanese subjects, Group 1, n=8, 25 mg empagliflozin; cited from earlier work
[2] = design: method as in PMID 26101175; details: Chinese subjects, Group 2, n=9, 25 mg empagliflozin; cited from earlier work
[3] = design: method as in PMID 23859534; details: glucuronidation is the major metabolic pathway; cited from earlier work
[4] = white German subjects, cited from earlier work
[5] = Single oral dose pharmacokinetic study of EG in healthy Egyptian volunteers (LC-MS/MS of plasma); type: in vivo, human; details: one JARDIANCE tablet 25 mg EG; for Cmax, Mean ± S.D. (% C.V.): n=6, fasting, single oral dose
Protocol: Each EG calibrator and quality control (QC) plasma sample (980 µL) was spiked with 20 µL containing the appropriate amount of EG in acetonitrile prepared with dilution of EG working solution. All samples including the volunteers’ plasma samples (1 mL plasma) were spiked with 100 µL of IS that contained 100 ng of DG followed by vortexing for 20 sec. Five milliliters of TBME were added, vortexed for 1 min, and centrifuged for 30 min at 6000 rpm. Four milliliters of the organic layer were vacuum evaporated until dryness at 60 °C. Three hundred microliters of acetonitrile were added to reconstitute the resulting residue and vortexed for 3 min. Ten microliters of the reconstituted solution were injected into the LC-MS/MS system.
The pharmacokinetic parameters of EG were studied in healthy human subjects according to the ethical regulations of World Medical Association Declaration of Helsinki (October 1996) and the International Conference of Harmonization Tripartite Guideline for Good Clinical Practice. Written informed consent was provided by each volunteer before enrollment. Approval of the study by the ethical committee was mandatory according to the Egyptian ministry of Health and The British University in Egypt research ethics guidelines. The experimental protocols were approved by the ethics committee of the Faculty of Pharmacy, The British University in Egypt. The clinical trial protocol was registered in a publically accessible primary register that participates in the WHO International Clinical Trial Registry Platform (ClinicalTrials.gov, 16/02/2017, ID: NCT03059056). Good health of the human subjects was confirmed with a complete medical history and physical examination. Fasting of all volunteers eliminated the possible interaction from high fat meals. The evaluation of safety of the study was based on monitoring of blood glucose level, vital signs, pulse rate, monitoring of adverse events, and physical examination. Samples from 6 healthy, adult, male, Egyptian volunteers (age: 22–33 years, average weight: 77.8 kg, average body mass index (BMI): 29.2) were collected at 0, 0.5, 1, 1.5, 2, 3, 4, 8 and 12 hrs, transferred to heparinized centrifuge tubes and analyzed with the proposed method after single oral dose administration of one JARDIANCE tablet nominally containing 25 mg EG. Blood samples (3 mL of each sample) were centrifuged at 3000 rpm for 5 min, 1 mL of the plasma was separated and spiked with 100 µL (equivalent to 100 ng) of IS working solution, and then the procedure discussed under (Sample preparation) was applied. The main pharmacokinetic parameters of the study, Cmax, Tmax, t1/2, elimination rate constant, AUC0-t and AUC0-inf, were estimated using validated Excel software. Blood glucose level was determined for all volunteers at 0 and 1.5 hrs to monitor any hypoglycemic effect. The study was conducted as per FDA guidelines.

[6] = Monitoring of blood glucose level of volunteers (hypoglycemic effect); type: in vivo, human; details: healthy Egyptian volunteers, 25 mg EG single oral dose, determined at 0 and 1.5 hrs
From the text: The pharmacokinetic parameters of EG were studied in healthy human subjects according to the ethical regulations of World Medical Association Declaration of Helsinki (October 1996) and the International Conference of Harmonization Tripartite Guideline for Good Clinical Practice. Written informed consent was provided by each volunteer before enrollment. Approval of the study by the ethical committee was mandatory according to the Egyptian ministry of Health and The British University in Egypt research ethics guidelines. The experimental protocols were approved by the ethics committee of the Faculty of Pharmacy, The British University in Egypt. The clinical trial protocol was registered in a publically accessible primary register that participates in the WHO International Clinical Trial Registry Platform (ClinicalTrials.gov, 16/02/2017, ID: NCT03059056). […] Samples from 6 healthy, adult, male, Egyptian volunteers (age: 22–33 years, average weight: 77.8 kg, average body mass index (BMI): 29.2) were collected at 0, 0.5, 1, 1.5, 2, 3, 4, 8 and 12 hrs, transferred to heparinized centrifuge tubes and analyzed with the proposed method after single oral dose administration of one JARDIANCE tablet nominally containing 25 mg EG. […] Blood glucose level was determined for all volunteers at 0 and 1.5 hrs to monitor any hypoglycemic effect. […]

OC[C@H]1O[C@@H](c2ccc(Cl)c(Cc3ccc(O[C@H]4CCOC4)cc3)c2)[C@H](O)[C@@H](O)[C@@H]1O [Empagliflozin]
AUC0-inf, Mean [1]: 7.56 µM·h | Cmax, Mean [1]: 1070 nM | AUC0-inf, Mean [2]: 7.45 µM·h | Cmax, Mean [2]: 1130 nM | metabolites detected in human plasma [3]: no major metabolites | AUC0-inf, Mean ([4]; Group 1, n=6, 25 mg EG): 3.83 µM·h | Cmax, Mean ([4]; Group 1, n=6, 25 mg EG): 505 nM | AUC0-inf, Mean ([4]; Group 2, n=18, 25 mg EG): 4.77 µM·h | Cmax, Mean ([4]; Group 2, n=18, 25 mg EG): 610 nM | AUC0-inf, Mean ([4]; Group 3, n=9, 25 mg EG): 4.31 µM·h | Cmax, Mean ([4]; Group 3, n=9, 25 mg EG): 606 nM | AUC0-inf, Mean ([4]; Group 4, n=9, 25 mg EG): 4.99 µM·h | Cmax, Mean ([4]; Group 4, n=9, 25 mg EG): 630 nM | k el ([5]; male, human, plasma, n=6, single oral dose, read-out: Elimination rate constant, Mean ± S.D. (% C.V.) (converted)): 2.78e-05 s⁻¹ | half-life ([5]; male, human, plasma, n=6, single oral dose, read-out: t 1/2, Mean ± S.D. (% C.V.) (converted)): 6.1 ± 1.2 h | Cmax, Mean ± S.D. (% C.V.) ([5]; plasma): 576 ± 86 (14.93) nMol/L | Cmax, Mean ± S.D. (% C.V.) ([5]; plasma, listed as empagliflozin): 576 nmol/L | AUC0-inf, Mean ± S.D. (% C.V.) ([5]; n=6, single oral dose): 4103 ± 427 (10.41) nMol.h/L | AUC0−t (12), Mean ± S.D. (% C.V.) ([5]; n=6, single oral dose, 0-12 h): 2806 ± 234 (8.34) nMol.h/L | AUC0-inf, Mean ± S.D. (% C.V.) ([5]; n=6, single oral dose, listed as empagliflozin): 4103 nmol·h/L | blood glucose level of all volunteers [6]: in the normal range
